Source: publication PMC11118615, “Cloning, Expression, Characterization and Immobilization of a Recombinant Carboxylesterase from the Halophilic Archaeon, Halobacterium salinarum NCR-1” (Biomolecules, 2024)

These compounds were tested against T1, rHsEst (recombinant carboxylesterase HsEst) (Halobacterium salinarum, UniProt Q9HPT9) (assay: spectrophotometric p-nitrophenol release, Michaelis-Menten nonlinear fit). Settings: free enzyme; pH 8.0 Tris-HCl, 1 M NaCl, 30 °C (methods print 25 °C).
T1 construct: gene est; synthetic gene in pTA1392, N-terminal 6xHis-tag, expressed in Haloferax volcanii H1209, HisTrap purified
Assay type: biochemical
Description: spectrophotometric p-nitrophenol release, Michaelis-Menten nonlinear fit on rHsEst (recombinant carboxylesterase HsEst)

T1 sequence (Q9HPT9 entry or part of it): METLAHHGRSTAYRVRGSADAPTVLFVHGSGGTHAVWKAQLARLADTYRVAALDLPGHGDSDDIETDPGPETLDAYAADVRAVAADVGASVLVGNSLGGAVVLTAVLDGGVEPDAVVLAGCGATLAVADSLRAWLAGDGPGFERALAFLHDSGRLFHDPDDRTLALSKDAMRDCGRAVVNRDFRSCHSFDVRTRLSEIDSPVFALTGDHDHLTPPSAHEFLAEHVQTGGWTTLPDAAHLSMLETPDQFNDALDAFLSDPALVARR

Compound	Km
CC(=O)Oc1ccc([N+](=O)[O-])cc1 [pNPC2, p-nitrophenyl acetate]	258 ± 51 µM
CCCCC(=O)Oc1ccc([N+](=O)[O-])cc1 [pNPC5, p-nitrophenyl valerate]	78 ± 7 µM
CCCCCCCC(=O)Oc1ccc([N+](=O)[O-])cc1 [pNPC8, p-nitrophenyl octanoate]	245 ± 26 µM
